Results taken from ChEMBL document CHEMBL5537120 (Eur J Med Chem, 2024).
The source made the active and inactive calls. No cut-off for these calls is given here. Where a SMILES comes first, the peptide text is derived from it. Bridges are numbered along the chain shown (N, C = ends).

Tests used:
SARS-CoV-2 [1] = assay: microbe, parasite or virus in culture; conditions: Severe acute respiratory syndrome coronavirus 2, Omicron BA.2.75, HEK-293T, 49 h, read-out: INH
Neuropilin-1 = Neuropilin-1 (Homo sapiens, UniProt O14786); assay: Binding affinity to NRP1 (unknown origin) by MST analysis
Sequence of Neuropilin-1 (O14786 whole entry): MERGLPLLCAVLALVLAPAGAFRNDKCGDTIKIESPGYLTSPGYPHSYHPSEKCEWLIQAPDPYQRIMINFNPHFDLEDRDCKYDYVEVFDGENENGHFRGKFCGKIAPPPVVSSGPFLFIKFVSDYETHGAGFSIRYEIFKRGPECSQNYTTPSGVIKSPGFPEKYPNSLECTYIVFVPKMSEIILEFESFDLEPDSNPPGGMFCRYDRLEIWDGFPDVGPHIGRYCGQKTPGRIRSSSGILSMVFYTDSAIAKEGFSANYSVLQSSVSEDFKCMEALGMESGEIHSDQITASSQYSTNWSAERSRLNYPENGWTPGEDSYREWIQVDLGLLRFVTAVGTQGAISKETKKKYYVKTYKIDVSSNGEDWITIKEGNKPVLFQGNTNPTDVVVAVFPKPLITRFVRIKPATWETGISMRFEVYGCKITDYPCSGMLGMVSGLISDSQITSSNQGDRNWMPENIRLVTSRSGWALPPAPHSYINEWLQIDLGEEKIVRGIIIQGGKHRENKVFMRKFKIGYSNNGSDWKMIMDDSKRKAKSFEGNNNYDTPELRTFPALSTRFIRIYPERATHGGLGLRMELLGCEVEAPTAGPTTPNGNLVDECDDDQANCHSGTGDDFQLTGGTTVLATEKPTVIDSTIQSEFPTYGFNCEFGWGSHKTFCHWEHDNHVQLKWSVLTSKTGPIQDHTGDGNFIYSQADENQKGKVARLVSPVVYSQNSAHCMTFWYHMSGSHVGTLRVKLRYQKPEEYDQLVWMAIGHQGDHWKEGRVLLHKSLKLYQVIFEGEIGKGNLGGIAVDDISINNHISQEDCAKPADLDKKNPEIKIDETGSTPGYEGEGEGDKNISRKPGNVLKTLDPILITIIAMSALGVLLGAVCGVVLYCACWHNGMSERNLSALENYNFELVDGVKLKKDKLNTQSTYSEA

SARS-CoV-2 [2] = assay: microbe, parasite or virus in culture; conditions: Severe acute respiratory syndrome coronavirus 2, Beta, HEK-293T
Description: Antiviral activity against HIV-1 pseudotyped SARS-CoV-2 Beta infected in HEK293T cells expressing ACE2/NRP1 assessed as reduction in infection rate pretreated with cells for 1 hr followed by viral infection and measured after 2 days by firefly luciferase reporter gene assay

SARS-CoV-2 [3] = assay: microbe, parasite or virus in culture; conditions: Severe acute respiratory syndrome coronavirus 2, Omicron BA.2.75, HEK-293T
Description: Antiviral activity against HIV-1 pseudotyped SARS-CoV-2 Omicron BA.2.75 infected in HEK293T cells expressing ACE2/NRP1 assessed as reduction in infection rate pretreated with cells for 1 hr followed by viral infection and measured after 2 days by firefly luciferase reporter gene assay

SARS-CoV-2 [4] = assay: microbe, parasite or virus in culture; conditions: Severe acute respiratory syndrome coronavirus 2, Alpha, HEK-293T
Description: Antiviral activity against HIV-1 pseudotyped SARS-CoV-2 Alpha infected in HEK293T cells expressing ACE2/NRP1 assessed as reduction in infection rate pretreated with cells for 1 hr followed by viral infection and measured after 2 days by firefly luciferase reporter gene assay

SARS-CoV-2 [5] = assay: microbe, parasite or virus in culture; conditions: Severe acute respiratory syndrome coronavirus 2, Delta, HEK-293T
Description: Antiviral activity against HIV-1 pseudotyped SARS-CoV-2 Delta infected in HEK293T cells expressing ACE2/NRP1 assessed as reduction in infection rate pretreated with cells for 1 hr followed by viral infection and measured after 2 days by firefly luciferase reporter gene assay

SARS-CoV-2 [6] = assay: Antiviral activity against HIV-1 pseudotyped SARS-CoV-2 Omicron BA.2.75 infected in HEK293T cells expressing ACE2/NRP1 assessed as reduction in viral replication at 1.6 uM pretreated with cells for 1 hr followed by viral infection and measured after 2 days by firefly luciferase reporter gene assay; assay type: functional, organism-based; conditions: Severe acute respiratory syndrome coronavirus 2, time 49.0 hrs
[7] = molecular target: Angiotensin-converting enzyme 2 (Homo sapiens, UniProt Q9BYF1); assay: Binding affinity to ACE2 (unknown origin) by MST analysis
Sequence of Angiotensin-converting enzyme 2 (Q9BYF1 whole entry): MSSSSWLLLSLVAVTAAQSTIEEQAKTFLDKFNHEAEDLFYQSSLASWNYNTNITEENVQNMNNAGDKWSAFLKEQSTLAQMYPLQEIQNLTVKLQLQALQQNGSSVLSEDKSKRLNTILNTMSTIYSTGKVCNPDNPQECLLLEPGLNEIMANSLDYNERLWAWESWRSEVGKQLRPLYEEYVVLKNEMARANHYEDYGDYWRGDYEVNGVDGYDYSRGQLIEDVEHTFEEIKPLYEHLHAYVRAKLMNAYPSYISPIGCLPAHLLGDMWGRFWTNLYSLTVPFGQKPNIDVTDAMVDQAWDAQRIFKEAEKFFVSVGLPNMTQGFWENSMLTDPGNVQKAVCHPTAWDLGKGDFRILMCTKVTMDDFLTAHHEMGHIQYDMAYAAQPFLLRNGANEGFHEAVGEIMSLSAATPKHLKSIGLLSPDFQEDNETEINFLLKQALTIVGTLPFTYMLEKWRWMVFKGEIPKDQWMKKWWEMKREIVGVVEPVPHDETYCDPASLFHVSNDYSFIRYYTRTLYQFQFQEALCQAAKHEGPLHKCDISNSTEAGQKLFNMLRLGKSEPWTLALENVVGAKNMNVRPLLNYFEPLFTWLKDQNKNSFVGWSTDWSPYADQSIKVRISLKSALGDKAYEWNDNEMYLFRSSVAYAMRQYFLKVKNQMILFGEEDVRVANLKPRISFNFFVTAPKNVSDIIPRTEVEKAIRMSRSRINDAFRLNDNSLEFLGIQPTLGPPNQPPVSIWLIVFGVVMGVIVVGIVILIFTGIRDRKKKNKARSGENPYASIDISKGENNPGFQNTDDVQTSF

CC(C)C[C@@H]1NC(=O)[C@@H]2CCCN2C(=O)[C@H](CO)NC(=O)[C@@H](NC(=O)[C@H](Cc2cnc[nH]2)NC(=O)[C@H](CO)NC(=O)[C@H](Cc2ccccc2)NC(=O)[C@H](CC(=O)O)NC(=O)CN)CSSC[C@@H](C(=O)N[C@H](C(=O)N[C@@H](Cc2ccc(O)cc2)C(=O)N2CCC[C@H]2C(=O)N[C@@H](CC(=O)O)C(=O)N2CCC[C@H]2C(=O)N[C@@H](CCC(=O)O)C(=O)NCC(=O)NCC(=O)NCC(=O)N[C@@H](CCCCN)C(=O)N2CCC[C@H]2C(=O)N[C@@H](C)C(=O)N[C@@H](CCCNC(=N)N)C(=O)N2CCC[C@H]2C(=O)N[C@@H](C)C(=O)N[C@@H](CCCNC(=N)N)C(=O)O)[C@@H](C)O)NC(=O)[C@H](CCCCN)NC(=O)[C@H](Cc2ccccc2)NC(=O)[C@H](Cc2c[nH]c3ccccc23)NC(=O)[C@@H]2CCCN2C(=O)[C@H](Cc2ccccc2)NC(=O)[C@H](Cc2ccc(O)cc2)NC(=O)[C@H](CCCNC(=N)N)NC1=O (H-GDFSHCSPLRYFPWFKCTYPDPEGGGKPARPAR-OH; disulfide 6-17)
inhibition at 1.6 µM (SARS-CoV-2 [1]): 70% | Kd (Neuropilin-1): 13.4 nM | EC50 (SARS-CoV-2 [2]): 2190 nM | EC50 (SARS-CoV-2 [3]): 450 nM | EC50 (SARS-CoV-2 [4]): 2730 nM | EC50 (SARS-CoV-2 [5]): 1200 nM | Activity (SARS-CoV-2 [6]): Active

CC(C)C[C@@H]1NC(=O)[C@H](C)NC(=O)[C@H](CCCNC(=N)N)NC(=O)[C@@H](NC(=O)[C@@H]2CCCN2C(=O)[C@H](CO)NC(=O)[C@H](Cc2ccc(O)cc2)NC(=O)[C@H](CC(=O)O)NC(=O)CN)CSSC[C@@H](C(=O)N2CCC[C@H]2C(=O)N[C@@H](CO)C(=O)NCC(=O)N[C@@H](CC(=O)O)C(=O)N2CCC[C@H]2C(=O)N[C@@H](CCC(=O)O)C(=O)NCC(=O)NCC(=O)NCC(=O)N[C@@H](CCCNC(=N)N)C(=O)NCC(=O)N[C@@H](CCCNC(=N)N)C(=O)N[C@@H](CCCNC(=N)N)C(=O)N2CCC[C@H]2C(=O)N2CCC[C@H]2C(=O)N[C@@H](CCCNC(=N)N)C(=O)O)NC(=O)[C@H](CCCNC(=N)N)NC(=O)[C@H](Cc2c[nH]c3ccccc23)NC(=O)[C@H](Cc2c[nH]c3ccccc23)NC(=O)[C@@H]2CCCN2C(=O)[C@H](CO)NC(=O)[C@H](Cc2cnc[nH]2)NC(=O)[C@H](CCCNC(=N)N)NC1=O (H-GDYSPCRALRHSPWWRCPSGDPEGGGRGRRPPR-OH; disulfide 6-17)
Kd (Neuropilin-1): 76.3 nM | Activity (SARS-CoV-2 [6]): Active

CC[C@H](C)[C@H](NC(=O)[C@H](Cc1ccccc1)NC(=O)[C@H](CCCCN)NC(=O)[C@H](CC(=O)O)NC(=O)CN)C(=O)N[C@H]1CSSC[C@@H](C(=O)N[C@@H](CC(N)=O)C(=O)N[C@@H](Cc2c[nH]c3ccccc23)C(=O)N[C@@H](Cc2ccc(O)cc2)C(=O)N[C@@H](CC(=O)O)C(=O)N2CCC[C@H]2C(=O)N[C@@H](CCC(=O)O)C(=O)NCC(=O)NCC(=O)NCC(=O)N[C@@H](CCCCN)C(=O)NCC(=O)N[C@@H](CC(N)=O)C(=O)N[C@@H](CCCNC(=N)N)C(=O)N2CCC[C@H]2C(=O)N2CCC[C@H]2C(=O)N[C@@H](CCCNC(=N)N)C(=O)O)NC(=O)[C@H](Cc2ccccc2)NC(=O)[C@H](CCCCN)NC(=O)[C@H](Cc2c[nH]c3ccccc23)NC(=O)[C@@H]2CCCN2C(=O)[C@H](CCCCN)NC(=O)[C@H](CC(=O)O)NC(=O)[C@H](CCCNC(=N)N)NC(=O)[C@H]([C@@H](C)CC)NC(=O)[C@@H]2CCCN2C(=O)[C@H](CC(C)C)NC1=O (H-GDKFICLPIRDKPWKFCNWYDPEGGGKGNRPPR-OH; disulfide 6-17)
Kd (Neuropilin-1): 96.7 nM | Activity (SARS-CoV-2 [6]): Active

CSCC[C@@H](NC(=O)CNC(=O)CNC(=O)[C@@H](Cc1ccc(O)cc1)NC(=O)[C@@H](Cc1c[nH]c2ccccc12)NC(=O)CNC(=O)[C@@H](Cc1ccc(O)cc1)NC(=O)[C@@H](Cc1ccccc1)NC(=O)[C@@H](Cc1ccccc1)NC(=O)Cc1ccc2ccccc2c1)C(=O)N[C@H](CCC(=O)O)C(=O)N[C@H](CCCCN)C(=O)N[C@H](CC(C)C)C(=O)N[C@H](CC(C)C)C(=O)N[C@H](CCCNC(=N)N)C(=O)NCC(=O)NCC(=O)N[C@H](CCCNC(=N)N)C(=O)NCC(=O)N[C@H](CCC(=O)O)C(=O)N[C@H](CCCNC(=N)N)C(=O)N1CCC[C@@H]1C(=O)N1CCC[C@@H]1C(=O)N[C@H](CCCNC(=N)N)C(=O)O
Kd [7]: Not Active | Kd (Neuropilin-1): 106 nM

CC(C)C[C@H](NC(=O)[C@H](CC(=O)O)NC(=O)CN)C(=O)N[C@@H](Cc1cnc[nH]1)C(=O)N[C@@H](C)C(=O)N[C@H]1CSSC[C@@H](C(=O)N[C@H](C(=O)N[C@@H](CC(C)C)C(=O)NCC(=O)N[C@@H](CC(=O)O)C(=O)N2CCC[C@H]2C(=O)N[C@@H](CCC(=O)O)C(=O)NCC(=O)NCC(=O)NCC(=O)N[C@@H](CCCNC(=N)N)C(=O)N[C@@H](CO)C(=O)N2CCC[C@H]2C(=O)N[C@@H](CCCNC(=N)N)C(=O)N[C@@H](CCCNC(=N)N)C(=O)N[C@@H](C)C(=O)N[C@@H](CCCNC(=N)N)C(=O)O)[C@@H](C)O)NC(=O)[C@H](C)NC(=O)[C@H](Cc2c[nH]c3ccccc23)NC(=O)[C@H](Cc2c[nH]c3ccccc23)NC(=O)[C@@H]2CCCN2C(=O)[C@H](CC(=O)O)NC(=O)CNC(=O)[C@H](CCCNC(=N)N)NC(=O)[C@H](C(C)C)NC(=O)[C@@H]2CCCN2C(=O)[C@H](CCCNC(=N)N)NC1=O (H-GDLHACRPVRGDPWWACTLGDPEGGGRSPRRAR-OH; disulfide 6-17)
Kd (Neuropilin-1): 17.6 nM | Activity (SARS-CoV-2 [6]): Active

CC[C@H](C)[C@@H]1NC(=O)[C@@H]2CCCN2C(=O)[C@H](CO)NC(=O)[C@@H](NC(=O)[C@@H](NC(=O)[C@H](Cc2ccc(O)cc2)NC(=O)[C@H](CCCNC(=N)N)NC(=O)[C@H](CC(=O)O)NC(=O)CN)[C@@H](C)O)CSSC[C@@H](C(=O)N[C@@H](CC(=O)O)C(=O)N[C@@H](CC(C)C)C(=O)NCC(=O)N[C@@H](CC(=O)O)C(=O)N2CCC[C@H]2C(=O)N[C@@H](CCC(=O)O)C(=O)NCC(=O)NCC(=O)NCC(=O)N[C@@H](CCCCN)C(=O)N[C@@H](C)C(=O)N2CCC[C@H]2C(=O)N[C@@H](CCCNC(=N)N)C(=O)N[C@@H](CCCNC(=N)N)C(=O)N[C@@H](C)C(=O)N[C@@H](CCCNC(=N)N)C(=O)O)NC(=O)[C@H](CCCNC(=N)N)NC(=O)[C@H](Cc2c[nH]c3ccccc23)NC(=O)[C@H](Cc2c[nH]c3ccccc23)NC(=O)[C@@H]2CCCN2C(=O)[C@H](Cc2ccccc2)NC(=O)[C@H](CCSC)NC(=O)[C@H](CCCNC(=N)N)NC1=O (H-GDRYTCSPIRMFPWWRCDLGDPEGGGKAPRRAR-OH; disulfide 6-17)
Kd (Neuropilin-1): 22.5 nM | Activity (SARS-CoV-2 [6]): Active
